From patent US20060089375A1, “Pyrazolo[3,4-b] pyridine compounds, and their use as phosphodiesterase inhibitors” (priority 2002, published 2006)

Experiments:
[1] = target: T1, PDE4B (human recombinant) (Homo sapiens, UniProt Q07343); experiment: Inhibition of PDE4B activity: radioactive SPA or IMAP Fluorescence Polarisation (FP) assay; assay type: biochemical; conditions: PDE4B inhibitory activity, one reading or average of ca. 2-6 readings, read-out: PDE4B pIC50 (± about 0.5) (converted)
T1 construct: made in house
How it was run: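 SPA: yeast-expressed human recombinant PDE4B was preincubated with compound for 10–30 min at ambient temperature in Tris pH 7.5 with MgCl2, EGTA and BSA, then run 1 h with ~10 nM [3H]cAMP at ≤20% hydrolysis; 10 concentrations (1.5 nM–30 μM) gave pIC50. IMAP FP: Tris pH 7.2 with ~40 nM fluorescein-cAMP, under linear enzyme conditions.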

[2] = system: LPS-induced pulmonary neutrophilia in rats; experiment: In Vivo Assay 1: LPS-induced pulmonary neutrophilia in rats, orally administered PDE4 inhibitors; conditions: Rattus norvegicus, po, aerosolized LPS 30 min after dosing, BAL 4 hours post LPS, read-out: neutrophilia-inhibition ED50
Description: The purpose of this neutrophilia model is to study the potentially anti-inflammatory effects in vivo of orally administered PDE4 inhibitors on neutrophilia induced by inhalation of aerosolized lipopolysaccharide (LPS), modelling the neutrophil inflammatory component(s) of COPD. See the literature section below for scientific background.
Male Lewis rats (Charles River, Raleigh, N.C., USA) weighing approximately 300-400 grams are pretreated with either (a) test compound suspended in 0.5% methylcellulose (obtainable from Sigma-Aldrich, St Louis, Mo., USA) in water or (b) vehicle only, delivered orally in a dose volume of 10 ml/kg. Generally, dose response curves are generated using the following doses of PDE4 inhibitors: 10.0, 2.0, 0.4, 0.08 and 0.016 mg/kg. Thirty minutes following pretreatment, the rats are exposed to aerosolized LPS (Serotype E. Coli 026:B6 prepared by trichloroacetic acid extraction, obtainable from Sigma-Aldrich, St Louis, Mo., USA), generated from a nebulizer containing a 100 μg/ml LPS solution. Rats are exposed to the LPS aerosol at a rate of 4 L/min for 20 minutes. LPS exposure is carried out in a closed chamber with internal dimensions of 45 cm length×24 cm width×20 cm height. The nebulizer and exposure chamber are contained in a certified fume hood. At 4 hours-post LPS exposure the rats are euthanized by overdose with pentobarbital at 90 mg/kg, administered intraperitoneally. Bronchoalveolar lavage (BAL) is preformed through a 14 gauge blunt needle into the exposed trachea. Five, 5 ml washes are performed to collect a total of 25 ml of BAL fluid. […] Percent neutrophil inhibition at each dose (cf. vehicle) is calculated and a variable slope, sigmoidal dose-response curve is generated, usually using Prism Graph-Pad. […]
Alternative method and results: In an alternative embodiment of the procedure, single oral doses of 10 mg/kg or 1.0 mg/kg of the PDE4 inhibitor (or vehicle) is administered to the rats, and percent neutrophil inhibition is calculated and reported for that specific dose.

T1 sequence (Q07343 1-564 isoform Q07343-2): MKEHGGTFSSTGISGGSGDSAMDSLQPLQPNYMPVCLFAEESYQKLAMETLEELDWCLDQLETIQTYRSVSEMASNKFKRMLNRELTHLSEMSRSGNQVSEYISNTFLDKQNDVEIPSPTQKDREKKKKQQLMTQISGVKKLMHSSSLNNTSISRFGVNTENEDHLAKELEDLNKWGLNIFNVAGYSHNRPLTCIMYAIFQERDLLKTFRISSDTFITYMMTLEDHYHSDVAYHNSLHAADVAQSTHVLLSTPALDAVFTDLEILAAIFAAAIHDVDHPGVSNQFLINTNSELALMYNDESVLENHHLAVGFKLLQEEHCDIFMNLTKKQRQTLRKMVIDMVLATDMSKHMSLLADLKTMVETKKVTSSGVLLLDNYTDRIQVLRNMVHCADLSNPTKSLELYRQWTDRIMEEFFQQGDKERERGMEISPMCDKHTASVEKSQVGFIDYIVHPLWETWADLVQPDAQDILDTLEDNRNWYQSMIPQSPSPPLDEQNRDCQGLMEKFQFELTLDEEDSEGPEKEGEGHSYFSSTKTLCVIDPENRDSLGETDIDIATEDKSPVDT

| IC50 [1] | Structure (SMILES) | ED50 [2] |
| --- | --- | --- |
| 0.0126 µM | CCn1ncc2c(NC3CCOCC3)c(C(=O)Nc3ccc(F)cc3)cnc21 [Example 22, 1-Ethyl-N-(4-fluorophenyl)-4-(tetrahydro-2H-pyran-4-ylamino)-1H-pryazolo[3,4-b]pyridine-5-carboxamide] | 0.5 to 2 mg/kg |
| 0.0126 to 0.1 µM | CCNC(=O)c1cnc2c(cnn2CC)c1NC1CCOCC1 [Example 83, 1-Ethyl-N-ethyl-4-(tetrahydro-2H-pyran-4-ylamino)-1H-pyrazolo[3,4-b]pyridine-5-carboxamide] | 0.5 to 2 mg/kg |
| 0.0001 to 0.00631 µM | CCn1ncc2c(NC3CCOCC3)c(C(=O)NCc3ccc(C(F)(F)F)cc3)cnc21 [Example 155, 1-Ethyl-4-(tetrahydro-2H-pyran-4-ylamino)-N-[4-(trifluoromethyl)benzyl]-1H-pyrazolo[3,4-b]pyridine-5-carboxamide] | 0.5 to 2 mg/kg |
